Data from US20130303377A1, “USE OF SINGLE AMINO ACIDS AT LOW CONCENTRATIONS FOR INFLUENCING THE LIFE PROCESSES OF CROPS” (GLOBACHEM, priority 2010, published 2013).

Experiments:
[1] = system: Jonagold; assay: Improvement of the coloring with apple, Example 2; format: in vivo
Method: In an experiment similar to Example 1, glutamine was used 2 times on Jonagold, the first time 14 days before the picking and then a few days before the picking. The dosage of the treatment was this time 2 times 15 g/ha (each time with a concentration of 50 ppm wt in an atomisation of each time 300 liter of water per hectare). The % first picking was determined and is shown in Table 2, in comparison with a control test without treatment.

[2] = system: Jonagored; assay: Improvement of the coloring with apple, Example 4; format: in vivo; conditions: glutamine 2.5 g/ha, 4 days before the pick
Source text: In this experiment, glutamine was applied 4 days before the pick on a plot of Jonagored, and in a concentration of 8.3 ppm wt in 300 l/ha, which is equivalent to a dose of 2.5 g/ha of glutamine. In table 4 below the % of first picking is shown.

[3] = system: mature apple trees of the variety Jonagold (mutant King); assay: Improvement of the coloring with apple, Example 1 (glutamine sprayed before picking); format: in vivo; conditions: for kg 1st picking: colored fruits; for Fruit weight: average over the total harvest
Method: This experiment was performed on mature apple trees of the variety Jonagold (mutant King). The sprayings were performed with an atomizer at 300 liter of water/ha. The spray liquid used contained in the first test 300 ppm wt of glutamine and in the second test with a multiple treatment each time 150 ppm wt glutamine. The spray liquid further contained surfactants and a UV filter.
apples of the trees in the test field were harvested in 3 times. Glutamine was used as active substance, in a first test 2 weeks before the expected first picking date, and in the second test first 2 weeks and then again 1 week before the expected harvest date. The dosages used are shown below. At harvest, the total yield, the kilos colored fruits which could be harvested in the first picking and the average fruit weight over the total harvest (in grams per apple fruit) were determined. The results are shown in Table 1, and compared with a control without treatment.

[4] = system: mature apple trees of the variety Jonagold, Jonagored mutant; assay: Increase of both the yield and the coloring with apple, Example 3; format: in vivo
Method: This experiment was performed on mature apple trees of the variety Jonagold, Jonagored mutant. Unlike the two previous trials, the focus here is primarily on increasing the yield. To achieve this, the treatments have to be started much earlier in the season. The dose is hereby lower than in the two previous applications because the goal is here fruit set and growth inhibition, instead of coloring. One could suffice with two treatments, at the start of the growing season, but several applications over the entire growing season gives a more certain result. The applications in this test were started around the end of flowering and were repeated every 7 to 14 days, depending on the weather conditions. There were in total 7 treatments, more precisely on April 24, May 7, May 14, May 20, June 9, June 16 and June 24. The sprayings were performed with an atomiser.
Glutamine, each time at a concentration of 50 ppm wt in 300 liter water/ha, and thus a dose of 15 g/ha, was applied both separately and in combination with S-abscisic acid (ABA). In the combination test, ABA was administered at the first 2 sprayings of the season, and always at a concentration of 3.3 ppm in 300 l water/ha spraying liquid, which corresponds to a dosage of 1.0 g/ha of ABA. At the end of the season, the extension of the shoots was measured and the number of fruits per tree determined. Shortly after the end of the sprayings, on June 25, the average fruit diameter was also determined.

[5] = system: plants; assay: Strength of the response to one single amino acid as a function of dosage; format: in vivo; conditions: compared to the intermediate range of 5-15 g/ha
Source text: The location of the peaks of the pattern, i.e. at which concentrations the strongest effects could be recorded, and the location of the valley between two peaks, i.e. the range wherein the response was again a little less, appeared however to depend on the choice of the amino acid and of the life process which one wishes to influence.

[6] = system: wheat seedlings; assay: Growth inhibition with wheat; format: in vivo; conditions: for Growth increase (cm): one treatment; for Growth increase (cm) / % wrt control: after 10 days; for % wrt control: growth increase
Method: (§1) This experiment was performed in four repetitions on wheat seedlings. Per repetition six seedlings were sown in a jar and monitored. When the seedlings were about 15 cm high, they were treated once with the following treatments, and after 10 days the growth increase was measured. The dose is given in g/ha whereby the conversion from the concentration was done with a use of 300 l/ha.

[7] = system: barley seedlings; assay: Growth inhibition with barley; format: in vivo; conditions: 250 g/ha, after 8 days
Method: as §1, with “on barley” for “on wheat”, “Per repetition,” for “Per repetition”, “after 8” for “after 10”, “done at” for “done with”, “300 I/ha.” for “300 l/ha.”

[8] = system: plants; conditions: 500 ppm of glutamic acid; EP 1124419; cited from earlier work
[9] = system: plants; conditions: only glutamic acid; WO 00/25582; cited from earlier work
[10] = glutamine 2 × 45 g/ha, 2 weeks and 1 week before expected harvest date
[11] = glutamine 90 g/ha once, 2 weeks before expected first picking

Structure (SMILES): NC(=O)CC[C@H](N)C(=O)O [Glutamine, glutamine]
- Increase in the first picking, absolute percentage with respect to weight of total harvest ([1]; double treatment of glutamine, versus control): around 10%
- Increase of the first-picking portion of the harvest ([1]; extrapolated at a Jonagold yield of 60 tons/ha): at least 6 tons/ha
- % 1st picking ([1]; glutamine 2 × 15 g/ha, 14 days and a few days before the picking): 40%
- % 1st picking [2]: 55.8%
- Difference of first picking versus control ([3]; dual treatment (2 × 45 g/ha)): 3 kg
- Difference of first picking versus control (% of total harvest) ([3]; dual treatment (2 × 45 g/ha)): 10%
- 1st picking in % of the total harvest [3, 10]: 46%
- kg (total harvest) [3, 10]: 39 kg
- kg 1st picking [3, 10]: 18 kg
- Fruit weight ([3]; glutamine 2 × 45 g/ha): 257 g
- 1st picking in % of the total harvest [3, 11]: 41%
- kg (total harvest) [3, 11]: 39 kg
- kg 1st picking [3, 11]: 16 kg
- Fruit weight ([3]; glutamine 90 g/ha once): 248 g
- Increase of first picking versus control ([3]; single treatment (90 g/ha)): 1 kg
- Increase of first picking versus control (% of total harvest) ([3]; single treatment (90 g/ha)): 5%
- Average Shoot length (cm) ([4]; end of season, glutamine 15 g/ha, 7 treatments): 25.6 cm
- Fruit diameter (mm) on June 25 ([4]; glutamine 15 g/ha, 7 treatments): 43.7 mm
- Increase of fruits per tree versus control ([4]; glutamine alone, 15 g/ha, 7 treatments): 14 fruits per tree
- Increased yield ([4]; glutamine alone, extrapolated at 1714 trees/ha and five apples per kilo): ~5000 kg/ha
- Number of fruits ([4]; per tree, glutamine 15 g/ha, 7 treatments from end of flowering): 127

Structure (SMILES): N[C@@H](Cc1c[nH]cn1)C(=O)O [Histidine, histidine]
- Strength of the response as a function of dosage [5]: higher response in the range of 0.5-5 g/ha and in a range of 15-250 g/ha
- Growth increase (cm) ([6]; 2 g/ha): 10.0 cm
- Growth increase (cm) ([6]; 100 g/ha): 10.2 cm
- Strength of the growth inhibitory response ([6]; further experiments with only histidine, about 10 g/ha): less than in the tests with the lower (2 g/ha) and higher (100 g/ha) dosages
- % wrt control ([6]; 2 g/ha): 92%
- % wrt control ([6]; 100 g/ha): 94%

Structure (SMILES): CC(C)(C)C(O)(CCc1ccc(Cl)cc1)Cn1cncn1 (stereo not drawn) [Tebuconazole, tebuconazole]
- Growth increase (cm) ([7]; one treatment): 3.2 cm
- % wrt control ([7]; growth increase): 45%

Structure (SMILES): CCOC(=O)C1CC(=O)C(=C(O)C2CC2)C(=O)C1 (stereo not drawn) [Trinexapac-ethyl, trinexapac-ethyl, reference compound]
- Growth increase (cm) ([6]; 250 g/ha): 7.8 cm
- % wrt control ([6]; 250 g/ha): 72%

Structure (SMILES): N[C@@H](CCC(=O)O)C(=O)O [glutamic acid]
- Effect on productivity of plants [8]: only a small effect
- Yield of plants versus control test [9]: did not yield any significant improvement
